Reference: ChEMBL document CHEMBL5370584, “Reprogramming Energy Metabolism with Synthesized PDK Inhibitors Based on Dichloroacetate Derivatives and Targeted Delivery Systems for Enhanced Cancer Therapy” (J Med Chem, 2023)
Active and inactive are the calls of the source. No cut-off for these calls is given here.

What was measured:
[1] = Toxicity in BALB/c mouse assessed as effect on UA level at 0.15 to 1.5 mg/kg measured upto 16 days; format: organism-based; conditions: in vivo, 384 h, dose 0.15-1.5 mg/kg, time < 16 day
[2] = Toxicity in BALB/c mouse assessed as effect on body weight at 0.15 to 1.5 mg/kg measured upto 16 days; format: organism-based; conditions: in vivo, 384 h, dose 0.15-1.5 mg/kg, time < 16 day
[3] = Toxicity in BALB/c mouse assessed as effect on CREA level at 0.15 to 1.5 mg/kg measured upto 16 days; format: organism-based; conditions: in vivo, 384 h, dose 0.15-1.5 mg/kg, time < 16 day
[4] = Toxicity in BALB/c mouse assessed as effect on ALT level at 0.15 to 1.5 mg/kg measured upto 16 days; format: organism-based; conditions: in vivo, 384 h, dose 0.15-1.5 mg/kg, time < 16 day
4T1 [5] = experiment: Recovery in mitochondrial function in mouse 4T1 cells assessed as increase in OCR/ECAR ratio; format: functional, cell-based; conditions: dose 2-6 µM
4T1 [6] = experiment: Induction of mitochondrial respiration in mouse 4T1 cells assessed as upregulation of intracellular ATP level at 2 uM incubated for 12 to 24 hrs […]; format: functional, cell-based; conditions: time 12-24 hrs
[7] = target: [Pyruvate dehydrogenase (acetyl-transferring)] kinase isozyme 1, mitochondrial (Mus musculus) (UniProt Q8BFP9); experiment: Inhibition of PDK1 transcription in mouse 4T1 cells at 4 uM incubated for 24 hrs by qPCR analysis; format: cell-based
[Pyruvate dehydrogenase (acetyl-transferring)] kinase isozyme 1, mitochondrial (Mus musculus), sequence (Q8BFP9 whole entry): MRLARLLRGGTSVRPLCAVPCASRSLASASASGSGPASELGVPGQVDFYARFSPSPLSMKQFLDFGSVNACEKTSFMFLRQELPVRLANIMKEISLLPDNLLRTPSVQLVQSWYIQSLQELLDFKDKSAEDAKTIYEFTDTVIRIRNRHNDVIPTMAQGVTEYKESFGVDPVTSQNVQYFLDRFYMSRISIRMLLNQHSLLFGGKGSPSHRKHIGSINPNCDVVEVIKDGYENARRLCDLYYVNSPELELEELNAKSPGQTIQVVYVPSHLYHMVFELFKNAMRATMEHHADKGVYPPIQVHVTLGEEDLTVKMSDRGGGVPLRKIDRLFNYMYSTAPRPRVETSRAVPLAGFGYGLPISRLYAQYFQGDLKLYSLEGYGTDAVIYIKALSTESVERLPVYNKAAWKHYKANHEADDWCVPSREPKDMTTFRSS

[8] = Toxicity in BALB/c mouse assessed as effect on liver at 0.15 to 1.5 mg/kg measured upto 16 days; format: organism-based; conditions: in vivo, 384 h, dose 0.15-1.5 mg/kg, time < 16 day
4T1 [9] = experiment: Induction of mitochondrial respiration in mouse 4T1 cells assessed as increase in oxygen consumption rate at 2 to 6 uM incubated for 6 hrs by seahorse XF96 flux analyzer; format: functional, cell-based; conditions: dose 2-6 µM
[10] = target: [Pyruvate dehydrogenase (acetyl-transferring)] kinase isozyme 1, mitochondrial (Homo sapiens, UniProt Q15118); experiment: Inhibition of PDK1 (unknown origin) incubated for 30 mins in presence of ATP by kinase glo luminescent kinase assay
[Pyruvate dehydrogenase (acetyl-transferring)] kinase isozyme 1, mitochondrial, sequence (Q15118 whole entry): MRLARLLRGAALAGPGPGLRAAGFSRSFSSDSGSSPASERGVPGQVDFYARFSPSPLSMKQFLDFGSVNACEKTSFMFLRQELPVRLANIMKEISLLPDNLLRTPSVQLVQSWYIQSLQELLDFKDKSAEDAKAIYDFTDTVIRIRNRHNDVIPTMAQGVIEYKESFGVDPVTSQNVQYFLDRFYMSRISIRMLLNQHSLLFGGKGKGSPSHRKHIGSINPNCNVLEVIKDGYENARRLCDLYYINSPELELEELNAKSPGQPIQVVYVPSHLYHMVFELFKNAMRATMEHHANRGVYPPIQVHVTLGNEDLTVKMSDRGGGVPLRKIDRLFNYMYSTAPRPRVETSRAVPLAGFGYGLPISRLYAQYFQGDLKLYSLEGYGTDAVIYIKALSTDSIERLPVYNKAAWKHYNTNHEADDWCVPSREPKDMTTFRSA

4T1 [11] = experiment: Induction of ROS production in mouse 4T1 cells by confocal scanning microscopy based analysis; format: functional, cell-based
COS-7 = experiment: Effect on PDHA1 expression in African monkey COS7 cells at 12 uM measured after 24 hrs; format: functional, cell-based; conditions: Chlorocebus aethiops
4T1 [12] = experiment: Induction of apoptosis in mouse 4T1 cells assessed as increase in Bax expression at 4 uM incubated for 24 hrs; format: functional, cell-based
[13] = Antiproliferative activity against African green monkey COS7 cells assessed as inhibition of cell growth incubated for 24 hrs by MTT assay; format: toxicity, cell-based, Chlorocebus aethiops, COS-7; conditions: African green monkey (Chlorocebus aethiops), COS-7 cells
4T1 [14] = experiment: Inhibition of PDK1 expression in mouse 4T1 cells at 4 uM incubated for 24 hrs by Western blot analysis; format: functional, cell-based
4T1 [15] = experiment: Antiproliferative activity against PDK knockdown mouse 4T1 cells assessed as reduction in apoptotic percentage at 2 uM incubated for 24 hrs by flow cytometry analysis (reference value: 61.6%); format: functional; set-up: scale not given: the % may be the effect or the level left

With `O=C(CCCCCNC(=O)C(Cl)Cl)Nc1ccc([As]2SCCCS2)cc1` the Activity [1] was “Non-Toxic”, the Activity [2] was “Non-Toxic” and the Activity [3] was “Non-Toxic”. For the same molecule, the Activity [4] was “Non-Toxic”, the Activity (4T1 [5]) was “Dose-Dependent Effect” and the Activity (4T1 [6]) was “Active”. For the same molecule, the inhibition [7] was “Active”, the Activity [8] was “Non-Toxic” and the Activity (4T1 [9]) was “Active”. For the same molecule, the EC50 [10] was 0.068 µM, the Activity (4T1 [11]) was “Active” and the Activity (COS-7) was “inactive”. The Activity (4T1 [12]) was “Active”, the IC50 at 24 h [13] was 11.2 µM and the inhibition (4T1 [14]) was “Active”. The Activity (4T1 [15]) was 16.1%.
